In patent US12453723B2, “Use of chidamide in preparing drug for treating renal fibrosis” (THE SECOND AFFILIATED HOSPITAL OF SOOCHOW UNIVERSITY, priority 2023, dated 2025):

Columns and labels:
[1] = tested on: PI3K/Akt signaling pathway; test: PI3K/Akt signaling pathway in UUO mouse model (immunoblotting); assay type: in vivo
Excerpt: (§1) The PI3K-Akt signaling pathway is an intracellular signal transduction pathway which responds to extracellular signals, promotes metabolism, proliferation, cell survival, growth and angiogenesis, and participates in pathophysiological processes of multiple diseases. […] The above experimental results all verify that chidamide can inhibit the PI3K/Akt signaling pathway.
(§2) In FIG. 7, (A) the effects of chidamide onprotein expression of p-PI3K, PI3K, p-Akt and Akt in TGF-β stimulated renal tubular epithelial cell HK-2 were detected by the immunoblotting experiment; (B-C) the statistical charts showingthe effect of chidamide onp-PI3K/PI3K and p-Akt/Akt ratios in TGF-β stimulated renal tubular epithelial cell HK-2, n=3, Mean±SDs, Student's t-test, *: P<0.05; (D) the effectof chidamide on protein expression of p-PI3K, PI3K, p-Akt and Akt in UUO mouse model was detected by the immunoblotting experiment (n=4); (E) the effect of chidamide on proein expression of autophagy markers of TGF-β stimulated renal tubular epithelial cell HK-2 was detected by the immunoblotting experiment; (F) the effect of chidamide on protein expression of autophagy markers as well as p-mTOR and mTOR in UUO mouse model was detected by the immunoblotting experiment (n=4).

UUO mice = test: Renal fibrosis mouse model (UUO): renal morphology, renal function, collagen deposition, fibrosis markers; assay type: in vivo
Excerpt: In this example, a renal fibrosis mouse model (UUO: Unilateral Uretera Obstruction, renal interstitial fibrosis model) was constructed through UUO surgery at the same time. On the 7th day after surgery, the protein expression of HDAC1/2/3/10 in test group (UUO) and control group (Sham) was detected respectively through immunoblotting and immunohistochemical tests.
In this example, mice were divided into 7 groups at random with 7 mice in each group, which were Sham group (sham), Sham+chidamide group (Sham-Chi 10 mg/kg/d), model group (UUO), UUO+Enacept positive control group (UUO-En 10 mg/kg/d), UUO+chidamide low-dose administration group (UUO-Chi 1 mg/kg/d), UUO+chidamide medium-dose administration group (UUO-Chi 5 mg/kg/d) and UUO+chidamide high-dose administration group (UUO-Chi 10 mg/kg/d), respectively. All drugs were administrated by gavage 3 days before modeling, once a day, until 7 days after surgery. Mice were weighed everyday after surgery, and then growth curves were plotted. After administration was ended, the mice were anesthetized, the eye sockets were removed and bloods were collected for the detection of serum creatinine (Scr) and urea nitrogen (BUN). At the same time, left and right kidneys were taken and then weighed after hydronephrosis was removed, so as to obtain the renal weight indexes of the obstructed kidneys in mice (kidney weight/mouse weight at the obstructed side). The photos were taken.
In FIG. 3, (A) the weight growth curve of mice verified the effect of UUO modeling and intragastric administration of chidamide on mouse weight, n=7, Mean±SDs, Student's t-test, ns: not significant; (B) the renal weight index change of mice (the statistical chart above, n=4, Mean±SDs, Student's t-test, *: P<0.05, **: P<0.01, ****: P<0.0001, ns: not significant) and renal tissue in vitro photos (below) verified the effect of chidamide on renal morphological changes of UUO mice; (C-D) mouse creatinine (C) and urea nitrogen (D) changes verified the effect of chidamide on renal functions of UUO mice, n=5-6, Mean±SDs, Student's t-test, *: P<0.05, **: P<0.01, ***: P<0.001, ns: not significant.
In the above constructed UUO mouse model of this example, the effect of chidamide on renal interstitial collagen fiber deposition was detected further by Masson staining.
In FIG. 4, (A-B) the deposition of renal interstitial collagen fibers was detected after UUO modeling and chidamide was administrated, (A) a typical picture for Masson staining; (B) the statistical results of Masson staining area proportion, n=6, Mean±SDs, Student's t-test, *: P<0.05, **: P<0.01, ****: P<0.0001, ns: not significant.
In this example, the improvement effect of chidamide on UUO renal fibrosis was further detected. In the above constructed UUO mouse model of this example, the effect of chidamide on protein expression of renal fibrosis markers was detected respectively by immunohistochemistry and immunoblotting experiments, and the change in fibrosis marker mRNA was detected by the qPCR experiment. […]

[2] = tested on: PI3K/Akt signaling pathway; test: PI3K/Akt signaling pathway in TGF-β stimulated HK-2 cells (immunoblotting); assay type: cell-based
Excerpt: as §1, §2

[3] = tested on: TGF-β stimulated renal tubular epithelial cells HK-2; test: PI3K inhibitor LY 294002 and chidamide on fibrosis markers Collagen I and α-SMA in TGF-β stimulated HK-2 (immunoblotting); assay type: cell-based; details: FIG. 8B
Excerpt: Subsequently, this example further investigated the change of chidamide on fibrosis markers after LY 294002 treatment was used in TGF-β stimulated renal tubular epithelial cells HK-2. […] The above experimental results initially verify that chidamide is very likely to inhibit the progression of renal fibrosis through the PI3K/Akt signaling pathway.
In FIG. 8, (A) the effect of different concentrations of LY 294002 (LY) on protein expression of fibrosis markers Collagen I and α-SMA in TGF-β stimulated renal tubular epithelial cells HK-2 was detected by the immunoblotting experiment; (B) the effect of LY 294002 (LY) on fibrosis marker Collagen I and α-SMA protein expression by chidamide was detected in TGF-β stimulated renal tubular epithelial cells HK-2 by the immunoblotting experiment.

[4] = tested on: TGF-β stimulated renal tubular epithelial cells HK-2; test: Fibrosis markers in TGF-β stimulated HK-2 cells (immunoblotting, qPCR); assay type: cell-based; details: different concentrations of chidamide
Method: Example 1 verified that HDAC1/2/3/10 can participate in renal fibrosis, and example 2 further explored the effect of chidamide on renal fibrosis in TGF-β stimulated renal tubular epithelial cells. In example 2, cells were treated by using different concentrations of chidamide and then stimulated by adding TGF-β, and the protein expression and mRNA levels of fibrosis markers were detected respectively by using immunoblotting and qPCR experiments.
In FIG. 2, (A) the effect of different concentrations of chidamide on protein expression of fibrosis markers α-SMA and Vimentin (Vim) in TGF-β stimulated HK-2 cells was detected by the immunoblotting experiment; (B-C) the statistical results of α-SMA and Vimentin in FIG. A in 3 biological duplications, Mean±SDs, Student's t-test, *: P<0.05; **: P<0.01; (D-E) the effect of different concentrations of chidamide on […] experiment in TGF-β stimulated HK-2 cells, and the statistical resultsare 3 technical duplications, Mean±SD, Student's t-test, *: P<0.05, **: P<0.01, ***: P<0.001, ****: P<0.0001.

## Nc1cc(F)ccc1NC(=O)c1ccc(CNC(=O)/C=C/c2cccnc2)cc1 [chidamide, N-(2-amino-4-fluorophenyl)-4-[N-[(E)-3-(3-pyridine)acryloyl]aminomethyl]benzamide]
[1]; FIG. 7D
  p-Akt/Akt ratio: significantly reduced
  p-PI3K/PI3K ratio: significantly reduced
[1]; FIG. 7F
  autophagy flow (autophagy markers): restore an autophagy flow
  p-mTOR/mTOR ratio: reduce
UUO mice; UUO mice after chidamide administration, FIG. 3C
  serum creatinine (Scr): obviously fall back
UUO mice; UUO mice after chidamide administration, FIG. 3D
  urea nitrogen (BUN): obviously fall back
UUO mice; UUO mice, Masson staining, FIG. 4
  renal interstitial collagen fiber deposition: significantly improved
UUO mice; UUO mouse renal tissues, immunohistochemistry and immunoblotting, FIGS. 5A-E
  protein expression of renal fibrosis markers: significantly fall back
UUO mice; UUO mouse renal tissues, qPCR, FIGS. 5F-I
  mRNA of renal fibrosis markers: significantly fall back
UUO mice; UUO+chidamide group compared with UUO group, FIG. 3B
  ureteral dilation degree and renal tissue squeezing degree: less than those in corresponding UUO group
UUO mice; UUO+chidamide group compared with UUO group, gavage, FIG. 3B
  obstruction renal weight index (kidney weight/mouse weight at the obstructed side): significantly decreased
UUO mice; intragastric administration at various doses (1, 5, 10 mg/kg/d), once a day, 3 days before modeling until 7 days after surgery, FIG. 3A
  weight growth curve of mice: did not affect the growth of mice
[2]; FIG. 7E
  autophagy flow (autophagy markers): restore an autophagy flow
[2]; FIGS. 7A-C
  p-Akt/Akt ratio: significantly reduced
  p-PI3K/PI3K ratio: significantly reduced
[3]; TGF-β stimulated HK-2, chidamide with PI3K inhibitor LY 294002 used simultaneously
  expression of fibrosis markers Collagen I and α-SMA: cannot affect the expression of fibrosis markers any more
[3]; TGF-β stimulated HK-2, used alone
  protein expression of fibrosis markers Collagen I and α-SMA: can inhibit
[4]; immunoblotting, FIG. 2A-C
  protein expression of fibrosis markers (α-SMA, Vimentin): significantly decreased
[4]; qPCR, FIG. 2D-E
  mRNA level of fibrosis markers (α-SMA, Vimentin): significantly decreased
